Earlier results, collected in patent US20020172713A1, “Micron sized bicarbonate particles and slurrys containing the same” (Church & Dwight, Co., Inc., priority 2001, published 2002).
Where two headings read alike, the source gives them in different places.

Conditions: prior art particles, dilution of about 70% by weight slurry with additional water

O=C([O-])O.[Na+] [sodium bicarbonate]
alkali metal bicarbonate particles dissolved in dilution (10° C.): 7%
alkali metal bicarbonate particles dissolved in dilution (22° C.): 8.5%
